Source: patent EP0038117A1, “Methods for preparing anti-hypertensive agents” (UNIVERSITY OF MIAMI, priority 1980, dated 1981)

Test: Stability of aqueous solution on standing under ambient conditions (loss of inhibitory activity)
Assay type: physicochemical
Settings: 1 mg per ml, pH of about 8, standing for as little as 30 minutes

C[C@H](CS)C(=O)N1CCC[C@H]1C(=O)O [SQ14225, D-3-mercapto-2-methylpropanoyl-L-proline]
activity of fresh aqueous solution upon standing: substantially less active
